Source: ChEMBL document CHEMBL4622868, “Design and synthesis of amphiphilic 2-hydroxybenzylphosphonium salts with antimicrobial and antitumor dual action” (Bioorg Med Chem Lett, 2020)

Assays:
Staphylococcus aureus [1] = experiment: Antibacterial activity against clinical isolate amoxicillin and ciprofloxacin resistance Staphylococcus aureus; format: functional
Bacillus cereus [2] = experiment: Antibacterial activity against Bacillus cereus; format: functional
[3] = Hemolytic activity against RBC (unknown origin) at 1 uM; format: ADME, cell-based, Erythrocyte; conditions: red blood cells (erythrocytes); read-out: Activity
[4] = Hemolytic activity against RBC (unknown origin) at 10 uM; format: ADME, cell-based, Erythrocyte; conditions: red blood cells (erythrocytes); read-out: Activity
[5] = Hemolytic activity against RBC (unknown origin) at 120 uM; format: ADME, cell-based, Erythrocyte; conditions: red blood cells (erythrocytes); read-out: Activity
M-HeLa [6] = experiment: Induction of mitochondrial membrane potential loss in human M-HeLa cells assessed as decrease in red fluorescence intensity by JC10 staining based flow cytometry analysis; format: functional, cell-based
[7] = tested on: Trichophyton mentagrophytes; experiment: Antifungal activity against Trichophyton mentagrophytes; format: functional
M-HeLa [8] = experiment: Induction of apoptosis in human M-HeLa cells assessed as early apoptotic cells at 3 uM incubated for 24 hrs by Annexin-V FITC and propidium iodide staining based flow cytometry analysis (reference value: 7.85 %); format: functional
HepG2 = experiment: Cytotoxicity against human HepG2 cells; format: functional, cell-based; conditions: read-out: IC50
M-HeLa [9] = experiment: Induction of apoptosis in human M-HeLa cells assessed as early apoptotic cells at 6 uM incubated for 24 hrs by Annexin-V FITC and propidium iodide staining based flow cytometry analysis (reference value: 7.85 %); format: functional
M-HeLa [10] = experiment: Induction of apoptosis in human M-HeLa cells assessed as late apoptotic cells at 6 uM incubated for 24 hrs by Annexin-V FITC and propidium iodide staining based flow cytometry analysis (reference value: 0.36 %); format: functional
PANC-1 = experiment: Cytotoxicity against human PANC1 cells; format: functional, cell-based
M-HeLa [11] = experiment: Induction of apoptosis in human M-HeLa cells assessed as viable cells at 3 uM incubated for 24 hrs by Annexin-V FITC and propidium iodide staining based flow cytometry analysis (reference value: 90.48 %); format: functional; conditions: read-out: Activity
Staphylococcus aureus [12] = experiment: Bactericidal activity against Staphylococcus aureus ATCC 209p; format: functional
M-HeLa [13] = experiment: Cytotoxicity against human M-HeLa cells; format: functional, cell-based
Staphylococcus aureus [14] = experiment: Antibacterial activity against clinical isolate amoxicillin resistance Staphylococcus aureus; format: functional
[15] = Selectivity index, ratio of IC50 for human Chang cells to IC50 for human MCF7 cells
Bacillus cereus [16] = experiment: Bactericidal activity against Bacillus cereus; format: functional
Staphylococcus aureus [17] = experiment: Antibacterial activity against Staphylococcus aureus ATCC 209p assessed as increase in crystal violet uptake at 2 uM incubated for 30 mins (reference value: 1.8 %); format: functional
MCF7 = experiment: Cytotoxicity against human MCF7 cells; format: functional, cell-based
M-HeLa [18] = experiment: Induction of apoptosis in human M-HeLa cells assessed as necrotic cells at 6 uM incubated for 24 hrs by Annexin-V FITC and propidium iodide staining based flow cytometry analysis (reference value: 1.32 %); format: functional
[19] = Hemolytic activity against RBC (unknown origin) at 480 uM; format: ADME, cell-based, Erythrocyte; conditions: red blood cells (erythrocytes); read-out: Activity
M-HeLa [20] = experiment: Induction of apoptosis in human M-HeLa cells assessed as early apoptotic cells incubated for 24 hrs by Annexin-V FITC and propidium iodide staining based flow cytometry analysis; format: functional, cell-based
Staphylococcus aureus [21] = experiment: Bactericidal activity against clinical isolate amoxicillin and ciprofloxacin resistance Staphylococcus aureus; format: functional
[22] = Hemolytic activity against RBC (unknown origin) at 240 uM; format: ADME, cell-based, Erythrocyte; conditions: red blood cells (erythrocytes); read-out: Activity
[23] = tested on: Trichophyton mentagrophytes; experiment: Fungicidal activity against Trichophyton mentagrophytes; format: functional
[24] = Selectivity index, ratio of IC50 for human Chang cells to IC50 for human M-HeLa cells
M-HeLa [25] = experiment: Induction of apoptosis in human M-HeLa cells assessed as necrotic cells at 3 uM incubated for 24 hrs by Annexin-V FITC and propidium iodide staining based flow cytometry analysis (reference value: 1.32 %); format: functional
Candida albicans [26] = experiment: Antifungal activity against Candida albicans; format: functional
Candida albicans [27] = experiment: Fungicidal activity against Candida albicans; format: functional
[28] = Hemolytic activity against RBC (unknown origin) at 20 uM; format: ADME, cell-based, Erythrocyte; conditions: red blood cells (erythrocytes); read-out: Activity
Staphylococcus aureus [29] = experiment: Antibacterial activity against Staphylococcus aureus ATCC 209p; format: functional
M-HeLa [30] = experiment: Induction of apoptosis in human M-HeLa cells assessed as viable cells at 6 uM incubated for 24 hrs by Annexin-V FITC and propidium iodide staining based flow cytometry analysis (reference value: 90.48 %); format: functional; conditions: read-out: Activity
M-HeLa [31] = experiment: Induction of mitochondrial membrane potential loss in human M-HeLa cells assessed as decrease in red fluorescence intensity at 3 uM by JC10 staining based flow cytometry analysis (reference value: 99.70 %); format: functional; set-up: scale not given: the % may be the effect or the level left
[32] = Selectivity index, ratio of IC50 for human Chang cells to IC50 for human HepG2 cells
[33] = Hemolytic activity against RBC (unknown origin) at 5 uM; format: ADME, cell-based, Erythrocyte; conditions: red blood cells (erythrocytes); read-out: Activity
Staphylococcus aureus [34] = experiment: Bactericidal activity against clinical isolate amoxicillin resistance Staphylococcus aureus; format: functional
M-HeLa [35] = experiment: Induction of apoptosis in human M-HeLa cells assessed as late apoptotic cells at 3 uM incubated for 24 hrs by Annexin-V FITC and propidium iodide staining based flow cytometry analysis (reference value: 0.36 %); format: functional
M-HeLa [36] = experiment: Induction of mitochondrial membrane potential loss in human M-HeLa cells assessed as decrease in red fluorescence intensity at 6 uM by JC10 staining based flow cytometry analysis (reference value: 99.70 %); format: functional; set-up: scale not given: the % may be the effect or the level left
[37] = Hemolytic activity against RBC (unknown origin) at 60 uM; format: ADME, cell-based, Erythrocyte; conditions: red blood cells (erythrocytes); read-out: Activity
[38] = Cytotoxicity against human Chang cells; format: cell-based
[39] = Hemolytic activity against RBC (unknown origin) at 40 uM; format: ADME, cell-based, Erythrocyte; conditions: red blood cells (erythrocytes); read-out: Activity
[40] = Selectivity index, ratio of IC50 for human Chang cells to IC50 for human PANC1 cells

CCCCCCCCCCCC[P+](Cc1ccccc1O)(c1ccccc1)c1ccccc1.[Cl-]
MIC (Staphylococcus aureus [1]): 2 µM
MIC (Bacillus cereus [2]): 0.9 µM
hemolysis at 1 µM [3]: 0%
hemolysis at 10 µM [4]: 1.3%
hemolysis at 120 µM [5]: 21.2%
Activity (M-HeLa [6]): Dose-dependent effect
MIC [7]: 7.8 µM
Activity (M-HeLa [8]): 39.26%
IC50 (HepG2): 9.8 µM
Activity (M-HeLa [9]): 53.31%
Activity (M-HeLa [10]): 10.89%
IC50 (PANC-1): 25.3 µM
viability at 3 µM (M-HeLa [11]): 46.4%
MBC (Staphylococcus aureus [12]): 2 µM
IC50 (M-HeLa [13]): 2.6 µM
MIC (Staphylococcus aureus [14]): 4 µM
Ratio IC50 [15]: 5.9
MBC (Bacillus cereus [16]): 3.8 µM
Activity (Staphylococcus aureus [17]): 24 - 82.7%
IC50 (MCF7): 7.2 µM
Activity (M-HeLa [18]): 2.42%
hemolysis at 480 µM [19]: 65.4%
Activity (M-HeLa [20]): Dose-dependent effect
MBC (Staphylococcus aureus [21]): 8 µM
hemolysis at 240 µM [22]: 42.3%
MFC [23]: 7.8 µM
Ratio IC50 [24]: 16.4
Activity (M-HeLa [25]): 4.57%
MIC (Candida albicans [26]): 7.8 µM
MFC (Candida albicans [27]): 7.8 µM
hemolysis at 20 µM [28]: 1.8%
MIC (Staphylococcus aureus [29]): 1 µM
viability at 6 µM (M-HeLa [30]): 33.4%
Activity (M-HeLa [31]): 76.61%
Ratio IC50 [32]: 4.5
hemolysis at 5 µM [33]: 0.9%
MBC (Staphylococcus aureus [34]): 16 µM
Activity (M-HeLa [35]): 9.78%
Activity (M-HeLa [36]): 39.17%
hemolysis at 60 µM [37]: 12.2%
IC50 [38]: 42.8 µM
hemolysis at 40 µM [39]: 2.9%
Ratio IC50 [40]: 1.7
